Experimental data taken from patent EP0062019A1, “New phenyl-perhydroazepines” (priority 1981, dated 1982).
pEC50: −log10 of the molar value.

Assays:
[1] = test system: rabbit right ventricle papillary muscle; assay: Positive inotropic effect (contractility) in isolated, electrically driven papillary muscle; type: cell-based; conditions: for pEC50 / Emax: Oryctolagus cuniculus; for pEC50: iv, papillary muscle driven at 1HZ, rabbits pretreated with reserpine (5 mg/kg i.v.), Krebs-buffer pH 7.4, 32°C, read-out: Tmax EC50; for Emax: maximal effect compared with maximal effect of isoprenaline (intrinsic activity), rabbits pretreated with reserpine, read-out: Tmax ISA
Protocol: (§1) Pharmacological studies on cardiac effects on heart frequency and contractility in isolated right atria and papillary muscle from rabbit.
(§2) Rabbits with an average weight of 2.5 kg, pretreated with reserpine (5 mg/kg i.v.) about 16 hours before the experiment were used. The rabbits were killed by a blow and the hearts were rapidly removed. The right atria and a papillary muscle from the right ventricle were isolated and set up to contract isometrically in an organ bath. The bath contained 50 ml Krebs-buffer (pH 7.4) and the temperature was kept at 32°C.
(§3) The contractions were measured by means of a force displacement transducer (Grass Model FT03) coupled to a.Grass Model 7 Polygraph with a preampliphier (Grass Model 7PIF). ,
(§4) The spontaneously beating right atria was stretched to a resting tension high enough to measure the contractions and to trigger a tachograph for registration of the frequency. The papillary muscle was stretched to the length at which maximal tension was developed and was driven at a frequency of 1HZ by a current 20 per cent above threshold and with a duration of 5 msec.
(§5) After 60 min. equilibration, dose response curves to cumulative concentrations of isoprenaline were constructed for chronotropic effect, i.e. increase in frequency (atria) and positive inotropic effect, i.e. increase in contractility (papillary muscle). After wash-out similar curves were constructed for the compounds employed according to the invention. The positive inotropic agent dopamine was included for comparison.
(§6) In order to establish the maximal chronotropic and inotropic responses of the preparations, isoprenaline was added immediately after the maximal concentrations of the compounds. The maximal effects of the compounds compared with the maximal effect of isoprenaline are expressed as intrinsic activity (ISA).

rabbit right atria = assay: Chronotropic effect (heart frequency) in isolated spontaneously beating right atria; type: cell-based; conditions: Oryctolagus cuniculus; for pEC50: iv, isolated right atria, rabbits pretreated with reserpine (5 mg/kg i.v.), Krebs-buffer pH 7.4, 32°C, read-out: HR EC50; for Emax: maximal effect compared with maximal effect of isoprenaline (intrinsic activity), rabbits pretreated with reserpine, read-out: HR ISA
Protocol: as §1, §2, §3, §4, §5, §6

SMILES | pEC50 [1] | Emax [1] | EC50 for contractility relative to the EC50 for dopamine ([1]; fraction of the dopamine EC50) | pEC50 (rabbit right atria) | Emax (rabbit right atria)
CCCN1CCCCC(c2cccc(O)c2)C1 (stereo not shown) [Example 1, 3-(3-hydroxyphenyl)N-n-propylperhydroazepine] | 4.96 | 37% | about one third | 6.46 | 31%
CC(C)NCC(O)c1ccc(O)c(O)c1 (stereo not shown) [Isoprenaline] | 8.00 | 100% | – | 8.52 | 100%
NCCc1ccc(O)c(O)c1 [Dopamine] | 4.44 | 77% | – | 4.42 | 97%
